Source: patent US20070105160A1, “Detection of intracellular enzyme complex” (DiscoveRx, priority 2005, published 2007)

What was measured:
[1] = biological target: glucocorticoid receptor (GR); test: PathHunter GR translocation EFC assay, antagonist mode (pre-incubation before agonist); assay type: cell-based, human; conditions: pre-incubated 1 hour
Method: (§1) • 5 mM Potassium phosphate (dibasic) • 5 mM Potassium phosphate (monobasic) • 150 mM Sodium Chloride • 10 mM Magnesium Acetate • 2% CHAPS • pH6.9 Reagent Buffer/Substrate Formulation/Mixture Used in the Assay: • 1 part Galacton Star (ABI) • 5 parts Emerald II enhancer (ABI) • 19 parts Lysis buffer with 2% CHAPS (DX) Assay Protocol (96 Well Assay Format) • 1. 10,000 CHO-EA+GR-PL cells/well in a volume of 100 μL are plated in a Costar 96 well white, clear bottom plate and allowed to adhere overnight at 37° C./5% CO2 in an incubator. • 2. […] The reaction is incubated for 3-4 hours in a 37° C./5% CO2 incubator. • 4. To the reaction, equal aliquots from 50 mL of reagent solution are added to the wells. • 5. The plate is read on a standard multiwell plate reader that can measure luminescent activity. (e.g., Wallac Victor II or Packard Lumicount) after 30 and 60 minutes.
The glucocorticoid receptor (GR) was subcloned by using a pCMV-GR-PL construct generated by Panomics, Inc. as pcr template, adding Bgl 2 and Kpn I sites at the 5′ and 3′ ends respectively. The GR sequence was based on and confirmed to match the RefSeq NM_000176 for the human GR. […] This plasmid was transiently transfected into a stable CHO-K1+EA-NLS/NRS expressing cell line. Clonal selection for cells expressing both EA-NLS/NRS and GR-PL was performed as described above except the cells were subjected to double antibiotic selection (hygromycin and Geneticin/G418).
(§2) 10,000 cells/well were plated in a white Costar® 96 well plate and allowed to adhere overnight. […] To the reaction, 50 μL of cell lysis/substrate solution was added and the plate was read in a Wallace Victor 2 plate reader after 60 minutes. […] Antagonist studies were also performed using titrating amounts of geldenamycin (1-1000 nM) pre-incubated with the PathHunter cells for 1 hour prior to being treated with an agonist (at the EC80 concentration) for 3 hours and the EFC activity was measured.

[2] = biological target: T1, glucocorticoid receptor (GR) (Homo sapiens, UniProt P04150); test: PathHunter GR translocation EFC assay, agonist mode, chemiluminescent detection; assay type: cell-based; conditions: CHO-EA+GR-PL (PathHunter) cells, agonist 3 hours, plate read after 60 minutes, FIG. 1
T1 construct: expressed in transfected cells; host or cells: CHO-K1 stably expressing EA-NLS/NRS (CHO-EA+GR-PL, 'PathHunter' cells)
T1 sequence (P04150 1-777): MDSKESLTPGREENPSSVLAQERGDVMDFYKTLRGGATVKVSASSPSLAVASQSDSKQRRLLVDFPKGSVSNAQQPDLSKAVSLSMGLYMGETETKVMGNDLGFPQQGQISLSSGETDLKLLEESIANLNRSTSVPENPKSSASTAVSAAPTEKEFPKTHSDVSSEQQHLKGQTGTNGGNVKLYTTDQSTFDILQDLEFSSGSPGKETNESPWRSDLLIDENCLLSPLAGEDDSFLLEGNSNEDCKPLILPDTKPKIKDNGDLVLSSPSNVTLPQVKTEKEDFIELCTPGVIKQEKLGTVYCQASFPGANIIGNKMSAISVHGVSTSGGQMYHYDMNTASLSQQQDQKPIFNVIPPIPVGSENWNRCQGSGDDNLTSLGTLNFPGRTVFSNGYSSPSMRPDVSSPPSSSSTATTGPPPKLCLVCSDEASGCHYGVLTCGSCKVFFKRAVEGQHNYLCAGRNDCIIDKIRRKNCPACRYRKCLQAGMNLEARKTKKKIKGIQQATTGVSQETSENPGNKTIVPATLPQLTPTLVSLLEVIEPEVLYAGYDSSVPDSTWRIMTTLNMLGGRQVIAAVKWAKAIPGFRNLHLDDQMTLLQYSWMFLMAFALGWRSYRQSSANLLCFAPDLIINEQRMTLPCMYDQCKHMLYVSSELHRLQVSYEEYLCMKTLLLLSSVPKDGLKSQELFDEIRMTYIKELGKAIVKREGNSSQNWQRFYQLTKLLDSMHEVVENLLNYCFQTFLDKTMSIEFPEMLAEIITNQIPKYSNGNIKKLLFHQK
Method: as §1, with “minutes. […]” for “minutes.”
as §2

IC50 ([1]; then 1 μM hydrocortisone as agonist for 3 hours) [nM]	IC50 ([1]; then 1 μM prednisolone as agonist for 3 hours) [nM]	IC50 ([1]; then dexamethasone treatment (EC80 concentration) for 3 hours, FIG. 2) [nM]	EC50 [2] [nM]	Compound
23.8	22.3	11.6	–	COC1=C2C[C@@H](C)C[C@H](OC)[C@H](O)[C@@H](C)/C=C(\C)[C@H](OC(N)=O)[C@@H](OC)/C=C\C=C(/C)C(=O)NC(=CC1=O)C2=O [geldenamycin]
–	–	–	62.9	C[C@]12C=CC(=O)C=C1CC[C@H]1[C@@H]3C[C@@H](O)[C@](O)(C(=O)CO)[C@@]3(C)C[C@H](O)[C@@]12F [triamcinolone]
